Results reported in publication PMC6390472, “‘Second-generation’ 1,2,3-triazole-based inhibitors of Porphyromonas gingivalis adherence to oral streptococci and biofilm formation” (MedChemComm, 2019).

Tested on: P. gingivalis adherence to S. gordonii
Assay: Biofilm model of P. gingivalis adherence to S. gordonii (confocal, green/red fluorescence ratio)
Type: cell-based, P. gingivalis ATCC33277 / S. gordonii DL-1
Settings: inhibition of P. gingivalis adherence to S. gordonii; concentration that reduced ratio of green to red fluorescence by 50%; tested 0–60 μM
Procedure: P. gingivalis ATCC33277 was grown in reduced trypticase soy broth (Difco) supplemented with 0.5 percent yeast extract, 1 μg mL^–1 menadione, and 5 μg mL^–1 hemin. Twenty five milliliters of medium were reduced for 24 h under anaerobic conditions by equilibrating in an atmosphere consisting of 10% CO2, 10% H2, and 80% N2. Following equilibration, P. gingivalis was inoculated in the medium and grown for 48 h at 37 °C under anaerobic conditions. S. gordonii DL-1 (1) was cultured aerobically without shaking in brain heart infusion (BHI) broth supplemented with 1 percent yeast extract for 16 hours at 37 °C. For some compounds that inhibited P. gingivalis adherence to S. gordonii, we determined their effect on planktonic growth of P. gingivalis and S. gordonii. The appropriate growth medium (10 ml) was supplemented with 10 μl of a 40 mM compound stock solution in DMSO. After inoculation, broth cultures were incubated as described above and compared to cultures grown in medium that was supplemented only with 0.1% DMSO. The cell density of each culture was determined by measuring the optical density at 600 nm (O.D.600nm) and the percent growth inhibition/stimulation was calculated using the following equation: [(O.D.600nm of the control/O.D.600nm of the culture grown in the presence of compound) – 1] × 100.
Two species biofilms were formed essentially as previously described.[39] To prepare bacterial cells for biofilm culture, 10 ml of an overnight S. gordonii culture was centrifuged at 5600 rpm for 5 min and the cell pellet was suspended in 1 mL sterile PBS. Subsequently, 20 μL of 5 mg ml^–1 hexidium iodide (Molecular Probes) was added to the cell suspension and incubated for 15 min with gentle shaking at room temperature in the dark. The labeled cells were centrifuged as described above, washed with phosphate-buffered saline (10 mM Na2HPO4, […], […], and 2.7 mM KCl, pH 7.2; [PBS]) and the cell pellet was suspended in PBS at a final O.D.600nm of 0.8. Similarly, 10 mL of a 48 h culture of P. gingivalis was centrifuged at 5600 rpm for 15 min, the cell pellet was suspended in 1 mL PBS and 20 μL of 5(6)-carboxyfluorescein N-hydroxysuccinimide ester (4 mg ml^–1, Molecular Probes, Inc.) was added. After incubation for 30 min with gentle shaking at room temperature in the dark, the suspension was centrifuged and washed as described above and suspended in PBS at a final O.D.600nm of 0.4. For biofilm cultures, 1 mL of labeled S. gordonii cells was added to each well of a 12-well microtiter plate (Greiner Bio-one) containing a circular coverslip (Fisher brand) and incubated in an anaerobic chamber with rotary shaking for 24 h at 37 °C. Unbound cells were removed by aspiration and 1 ml of labeled P. gingivalis cells containing the desired concentration of test compound was added and incubated under anaerobic conditions for 22 h at 37 °C. Test compounds were dissolved in dimethyl sulfoxide (DMSO) to generate 1000× stock solutions and were routinely tested over a final concentration range of 0–60 μM. 1 μL of the appropriate stock solution was added to each 1 mL aliquot of labeled P. gingivalis cells and incubated for 30 min at room temperature prior to adding the suspension to the microtiter plate wells. For control biofilms, 1 μL of DMSO was added to 1 mL of labeled P. gingivalis and incubated as described above.
To visualize P. gingivalis/S. gordonii biofilms, unbound P. gingivalis cells were removed by aspiration and coverslips were washed once with PBS. Biofilms were fixed by incubating the coverslips with 1 mL of 4% paraformaldehyde for 5 min followed by two washes with PBS. The coverslips were then removed, placed face down on a glass microscope slide containing a drop of antifade reagent (Life Technology) and sealed with nail polish. […]

## CCN(CC)c1nc(-c2cn(-c3ccc(-c4nc(-c5ccccc5)c(-c5ccccc5)o4)cc3)nn2)nc(N(CC)CC)n1 [Compound 91]
  IC50: > 60 µM

## Fc1ccc(Nc2nc(Nc3ccc(F)cc3)nc(-c3cn(-c4ccccc4-c4nc(-c5ccc(F)cc5)c(-c5ccc(F)cc5)o4)nn3)n2)cc1 [Compound 113]
  IC50: 49.2 µM

## Fc1ccc(Nc2nc(Nc3ccc(F)cc3)nc(-c3cn(-c4cccc(-c5nc(-c6ccc(F)cc6)c(-c6ccc(F)cc6)o5)c4)nn3)n2)cc1 [Compound 114]
  IC50: > 60 µM

## Fc1ccccc1Nc1nc(Nc2ccccc2F)nc(-c2cn(-c3cccc(-c4nc(-c5ccccc5)c(-c5ccccc5)o4)c3)nn2)n1 [Compound 100]
  IC50: 9.6 µM

## [O-][S+](Cc1nc(-c2ccc(Cl)cc2)c(-c2ccc(Cl)cc2)o1)c1ccc(-n2cc(-c3ccc(F)cc3)nn2)cc1 (stereo not drawn) [Compound 50]
  IC50: 39.8 µM

## Fc1ccc(Nc2nc(Nc3ccc(F)cc3)nc(-c3cn(-c4cccc(-c5nc(-c6ccco6)c(-c6ccco6)o5)c4)nn3)n2)cc1 [Compound 123]
  IC50: 8 µM

## O=S(=O)(Cc1nc(-c2ccc(Cl)cc2)c(-c2ccc(Cl)cc2)o1)c1ccc(-n2cc(-c3cccc(F)c3)nn2)cc1 [Compound 55]
  IC50: 18.2 µM

## COc1ccc(-c2nc(-c3cccc(-n4cc(-c5nc(Nc6ccccc6F)nc(Nc6ccccc6F)n5)nn4)c3)oc2-c2ccc(OC)cc2)cc1 [Compound 106]
  IC50: > 60 µM

## Fc1ccccc1Nc1nc(Nc2ccccc2F)nc(-c2cn(-c3ccc(-c4nc(-c5ccco5)c(-c5ccco5)o4)cc3)nn2)n1 [Compound 109]
  IC50: > 60 µM

## Fc1ccc(Nc2nc(Nc3ccc(F)cc3)nc(-c3cn(-c4ccc(-c5nc(-c6ccccc6)c(-c6ccccc6)o5)cc4)nn3)n2)cc1 [Compound 112]
  IC50: > 60 µM

## COc1ccccc1-c1cn(-c2ccc([S+]([O-])Cc3nc(-c4ccccc4)c(-c4ccccc4)o3)cc2)nn1 (stereo not drawn) [Compound 31]
  IC50: > 60 µM

## CCN(CC)c1nc(-c2cn(-c3ccc(-c4nc(-c5ccco5)c(-c5ccco5)o4)cc3)nn2)nc(N(CC)CC)n1 [Compound 99]
  IC50: > 60 µM

## Fc1ccc(Nc2nc(Nc3ccc(F)cc3)nc(-c3cn(-c4ccccc4-c4nc(-c5ccccc5)c(-c5ccccc5)o4)nn3)n2)cc1 [Compound 110]
  IC50: > 60 µM

## COc1ccccc1-c1cn(-c2ccc([S+]([O-])Cc3nc(-c4ccc(F)cc4)c(-c4ccc(F)cc4)o3)cc2)nn1 (stereo not drawn) [Compound 48]
  IC50: 7.2 µM

## CCN(CC)c1nc(-c2cn(-c3ccc(-c4nc(-c5ccc(OC)cc5)c(-c5ccc(OC)cc5)o4)cc3)nn2)nc(N(CC)CC)n1 [Compound 97]
  IC50: 36.6 µM

## [O-][S+](Cc1nc(-c2ccccc2)c(-c2ccccc2)o1)c1ccc(-n2cc(-c3ccc(Oc4ccccc4)cc3)nn2)cc1 (stereo not drawn) [Compound 35]
  IC50: > 60 µM

## Fc1ccccc1Nc1nc(Nc2ccccc2F)nc(-c2cn(-c3ccc(-c4nc(-c5ccccc5)c(-c5ccccc5)o4)cc3)nn2)n1 [Compound 101]
  IC50: > 60 µM

## CCN(CC)c1nc(-c2cn(-c3cccc(-c4nc(-c5ccccc5)c(-c5ccccc5)o4)c3)nn2)nc(N(CC)CC)n1 [Compound 90]
  IC50: 20.7 µM

## COc1ccccc1-c1cn(-c2ccc([S+]([O-])Cc3nc(-c4ccc(Cl)cc4)c(-c4ccc(Cl)cc4)o3)cc2)nn1 (stereo not drawn) [Compound 51]
  IC50: 10.2 µM

## Fc1ccc(Nc2nc(Nc3ccc(F)cc3)nc(-c3cn(-c4ccc(-c5nc(-c6ccco6)c(-c6ccco6)o5)cc4)nn3)n2)cc1 [Compound 124]
  IC50: 7.8 µM

## COc1ccccc1-c1cn(-c2ccc(S(=O)(=O)Cc3nc(-c4ccccc4)c(-c4ccccc4)o3)cc2)nn1 [Compound 40]
  IC50: 13.1 µM

## CCCCCc1ccc(-c2cn(-c3ccc(S(=O)(=O)Cc4nc(-c5ccccc5)c(-c5ccccc5)o4)cc3)nn2)cc1 [Compound 43]
  IC50: 36.6 µM

## COc1ccc(-c2nc(-c3ccccc3-n3cc(-c4nc(Nc5ccc(F)cc5)nc(Nc5ccc(F)cc5)n4)nn3)oc2-c2ccc(OC)cc2)cc1 [Compound 119]
  IC50: > 60 µM

## [O-][S+](Cc1nc(-c2ccccc2)c(-c2ccccc2)o1)c1ccc(-n2cc(-c3ccc(F)cc3)nn2)cc1 (stereo not drawn) [Compound 29]
  IC50: > 60 µM
